Experiment: mn = molality of the nth substance listed, in mol/kg
Conditions: 101.33 kPa, Liquid; for speed of sound: Frequency=3 MHz, Linear variable-path acoustic interferometer; for mass density: Pycnometric method; for viscosity: Capillary tube (Ostwald / Ubbelohde) method

N[C@@H](Cc1ccccc1)C(=O)O [L-phenylalanine] + O
Conditions | mass density [kg/m3] | speed of sound [m/s] | viscosity [mPa·s]
293.15 K, m1 = 0.0249 | 999.4 | 1488.8 | –
293.15 K, m1 = 0.0498 | 1000.55 | 1493 | –
293.15 K, m1 = 0.0749 | 1001.71 | 1496.2 | –
293.15 K, m1 = 0.0999 | 1002.88 | 1498.3 | –
293.15 K, m1 = 0.125 | 1004.04 | 1499.4 | –
293.15 K, m1 = 0.1499 | 1005.2 | 1499.4 | –
298.15 K, m1 = 0.0249 | 998.23 | 1501.9 | 0.9038
298.15 K, m1 = 0.0498 | 999.39 | 1505.9 | 0.9168
298.15 K, m1 = 0.0749 | 1000.55 | 1509 | 0.9299
298.15 K, m1 = 0.0999 | 1001.72 | 1511 | 0.9431
298.15 K, m1 = 0.125 | 1002.88 | 1512 | 0.9561
298.15 K, m1 = 0.1499 | 1004.05 | 1511.9 | 0.9691
303.15 K, m1 = 0.0249 | 996.84 | 1513.1 | 0.8083
303.15 K, m1 = 0.0498 | 998 | 1516.8 | 0.819
303.15 K, m1 = 0.0749 | 999.17 | 1519.5 | 0.8294
303.15 K, m1 = 0.0999 | 1000.34 | 1521.2 | 0.8399
303.15 K, m1 = 0.125 | 1001.51 | 1521.8 | 0.8505
303.15 K, m1 = 0.1499 | 1002.68 | 1521.3 | 0.8605
308.15 K, m1 = 0.0249 | 995.24 | 1524.1 | 0.7285
308.15 K, m1 = 0.0498 | 996.4 | 1527.4 | 0.7372
308.15 K, m1 = 0.0749 | 997.58 | 1529.8 | 0.7462
308.15 K, m1 = 0.0999 | 998.75 | 1531.1 | 0.7545
308.15 K, m1 = 0.125 | 999.92 | 1531.4 | 0.7635
308.15 K, m1 = 0.1499 | 1001.09 | 1530.6 | 0.7722
313.15 K, m1 = 0.0249 | 993.43 | 1530.8 | 0.6607
313.15 K, m1 = 0.0498 | 994.6 | 1533.8 | 0.668
313.15 K, m1 = 0.0749 | 995.78 | 1535.8 | 0.6749
313.15 K, m1 = 0.0999 | 996.96 | 1536.8 | 0.682
313.15 K, m1 = 0.125 | 998.14 | 1536.7 | 0.6897
313.15 K, m1 = 0.1499 | 999.32 | 1535.7 | 0.6968
318.15 K, m1 = 0.0249 | 991.43 | 1536.5 | 0.604
318.15 K, m1 = 0.0498 | 992.61 | 1539.1 | 0.6102
318.15 K, m1 = 0.0749 | 993.8 | 1540.8 | 0.616
318.15 K, m1 = 0.0999 | 994.98 | 1541.5 | 0.622
318.15 K, m1 = 0.125 | 996.17 | 1541.3 | 0.6285
318.15 K, m1 = 0.1499 | 997.36 | 1540 | 0.6346
